We go through 26 compounds from patent US6160004A, “C-10 carbon-substituted artemisinin-like trioxane compounds having antimalarial, antiproliferative and antitumor activities” (priority 1998, dated 2000).

≈ marks a conversion by molar mass, not a printed value. Read-outs that look alike come from different tables or passages of the source. Where only a bound is given, the exact number is not on record here.

The subject of data set [1] is chloroquine-sensitive P. falciparum (NF54). The experiment in a line: In vitro antimalarial activity ([3H]hypoxanthine incorporation). The format is cell-based.
For data set [2], the system named is malaria. The experiment in a line: In vivo antimalarial activity. Further details: species or system rodents.
In data set [3] the test system is murine keratinocyte cell line PE. The data set can be described thus: Growth inhibition of murine keratinocytes (MTT). The format is cell-based, murine (SENCAR mice). Conditions: 100 nanomolar. On the procedure:
To determine the inhibitory effect of the compositions of the present invention on cell proliferation, screening assays were performed on a murine keratinocyte cell line PE. Cell line PE was chosen for its particular sensitivity to the induction of ornithine decarboxylase (ODC) activity by the extensively characterized tumor promoter TPA. […] PE cell culture medium consisted of Eagle's minimal essential medium without calcium chloride (Whittaker Bioproducts, Walkersville, Mass.) supplemented with 8% chelexed fetal calf serum and 1% antibiotic-antimycotic (Gibco BRL) and the addition of CaCl2 to 0.05 mM Ca^++.
MTT [3-(4,5-dimethylthiazol-2-yl)-2,5-diphenyltetraxolium bromide] was purchased from Sigma Chemical Co. (St. Louis, Mo.), and TPA was supplied by L.C. Services (Woburn, Mass.). L-[^14 C]omithine (56 μCi/mol) was from Amersham/Searle Corp. (Arlington Heights, Ill.). Chemical solvents used in all assays of biological activity were of the highest grade commercially available.
Growth Inhibition. Growth curves, shown in FIGS. 1-5, for PE cells treated with calcitriol and the C-10 carbon-substituted dimers 38, 39, 43, 44, 45, 47 and 48, and monomer 27 generated by assay for the reduction of the tetrazolium-based compound MTT, see Charmichael, et al., Cancer Res., 47:936-942 (1987). […] PE cells were seeded at a density of 5,000 cells/well in 50 μL of medium into 96-well microtiter plates. Twelve hours later, the medium was removed, and cells were treated with 100 μL of fresh medium into which the appropriate amount of calcitriol or analog dissolved in dimethyl sulfoxide (DMSO) had been added, with the concentration of DMSO held constant at 0.1%. […] At 24-hour intervals following the initial treatment of the cells with compounds, 0.1 mg (50 μL of a 2 mg/mL solution) of MTT was added to each well. After 4 hours, the MTT was removed and DMSO added to dissolve the blue formazan dye. Using a microtiter plate reader, the A505 was then determined and cell number calculated from blank-subtracted absorbance values.

In data set [4] the test system is Ehrlich ascites tumor (EAT) cells. Conditions: cited from earlier work.
Data set [5] relates to P. berghei. Conditions: cited from earlier work.
The nature of data set [6]: Water solubility at pH 7.4. Format: physicochemical. The following applies: pH 7.4, water. The protocol:
Often, solubility in water is a desirable feature of a new drug candidate. Since organic compounds bearing one or more carboxylic acid groups or phenolic groups are usually water soluble at physiological pH, we have prepared a series of 10-carbon-substituted trioxane carboxylic acids via alkene oxidation and ester saponification. Also, bisphenol (34) was prepared by hydrolysis of the corresponding bis-silyl ether.

Data set [7] can be described thus: Stability (hydrolysis). Format: physicochemical.
Data set [8] is described as follows: In vivo acute toxicity testing. Conditions: preliminary.
[9] abbreviates: Plasmodium falciparum, chloroquine-sensitive P. falciparum NF54, in vitro.
Setting [10] is: sc; read-out: ED50 subcutaneous.
Setting [11] is: sc; read-out: ED90 subcutaneous.

Regarding `CO[C@H]1O[C@@H]2O[C@@]3(C)CC[C@H]4[C@H](C)CC[C@@H]([C@H]1C)[C@@]24OO3` [Artemether, reference compound], in data set [1] (P. falciparum NF54), the “in vitro antimalarial potency relative to artemisinin” value is listed as “more potent than artemisinin”.

As to `CCN(CC)CCCC(C)Nc1ccnc2cc(Cl)ccc12` (stereo not drawn) [Chloroquine, reference compound], the ED50 in data set [2] (sc, read-out: ED50 subcutaneous) was 1.8 mg/kg. Moreover, the ED90 in data set [2] (sc, read-out: ED90 subcutaneous) came out at 3.1 mg/kg. Consider `COc1cc(OC)c(C2OC3OC4(C)CCC5C(C)CCC(C2C)C35OO4)cc1C1OC2OC3(C)CCC4C(C)CCC(C1C)C24OO3` (stereo not drawn) [Dimer 43], for which the “antiproliferative activity relative to calcitriol” value in data set [3] is listed as “at least as antiproliferative as calcitriol”. Same read-out and setting: the value for `CC1CCC2C(C)C(C#Cc3cccc(C#CC4OC5OC6(C)CCC7C(C)CCC(C4C)C57OO6)c3)OC3OC4(C)CCC1C32OO4` (stereo not drawn) [Dimer 44] was “at least as antiproliferative as calcitriol”; that for `CC1CCC2C(C)C(C#Cc3ccc(C#CC4OC5OC6(C)CCC7C(C)CCC(C4C)C57OO6)cc3)OC3OC4(C)CCC1C32OO4` (stereo not drawn) [Dimer 45, C-10 p-Diethynylbenzene 10-deoxoartemisinin Dimer] was “at least as antiproliferative as calcitriol”; that for `CC1CCC2C(C)C(c3ccc(C4OC5OC6(C)CCC7C(C)CCC(C4C)C57OO6)o3)OC3OC4(C)CCC1C32OO4` (stereo not drawn) [Dimer 47] was “at least as antiproliferative as calcitriol”. On the same count and under the same terms, with `CC1CCC2C(C)C(c3ccc(C(c4ccccc4)c4ccc(C5OC6OC7(C)CCC8C(C)CCC(C5C)C68OO7)n4C)n3C)OC3OC4(C)CCC1C32OO4` (stereo not drawn) [Dimer 48] the entry was “at least as antiproliferative as calcitriol”.

Consider `C[C@@H]1CC[C@H]2[C@@H](C)C(OC3O[C@@H]4O[C@@]5(C)CC[C@H]6[C@H](C)CC[C@@H]([C@H]3C)[C@@]46OO5)O[C@@H]3O[C@@]4(C)CC[C@@H]1[C@]32OO4` (stereo partly drawn) [II-7], for which the IC50 in data set [4] (MTT, growth inhibition) was 1400 nM. In data set [4], the “cytotoxicity relative to artemisinin (times more cytotoxic)” value is “approximately twenty-two” and the “cytotoxicity relative to dihydroartemisinin (times more cytotoxic)” value was “sixty”. Moreover, the SD90 in data set [5] (P. berghei-infected mice, parasitemia 90 percent suppressed) is 10 mg/kg. Besides, in data set [5] (P. berghei-infected mice), the “in vivo potency relative to artemisinin” value is on record as “less potent than artemisinin”. Take `COc1ccc([C@@H]2O[C@@H]3O[C@@]4(C)CC[C@H]5[C@H](C)CC[C@@H]([C@H]2C)[C@@]35OO4)c(OC)c1` [Monomer 13]: half-maximal inhibition in data set [1] (survey data (preliminary), P. falciparum NF54) (IC50) was put at 8.9 nM. In the case of `COc1ccc(C2OC3OC4(C)CCC5C(C)CCC(C2C)C35OO4)c(OC)c1` (stereo not drawn) [Monomer 13a, 10α-(1',3'-Dimethoxyphenyl)deoxoartemisininin], the “in vitro antimalarial potency relative to artemisinin” value in data set [1] (P. falciparum NF54) is given as “more potent than artemisinin”. The compound further gave an IC50 in data set [1] (setting [9]) of 4.2 nM.

Take `C=CCOc1ccc([C@@H]2O[C@@H]3O[C@@]4(C)CC[C@H]5[C@H](C)CC[C@@H]([C@H]2C)[C@@]35OO4)c(OCC=C)c1` [Monomer 13b]: the IC50 in data set [1] (setting [9]) was 6.6 nM. Consider `C[C@H]1[C@H](c2ccc(O)cc2O)O[C@@H]2O[C@@]3(C)CC[C@H]4[C@H](C)CC[C@@H]1[C@@]24OO3` [Monomer 13d], for which the solubility in data set [6] was < 3 mM. Turning to `COc1cc(OC)c([C@@H]2O[C@@H]3O[C@@]4(C)CC[C@H]5[C@H](C)CC[C@@H]([C@H]2C)[C@@]35OO4)c(OC)c1` [Monomer 14], in data set [1] (setting [9]), it took 7.8 nM to reach half-maximal inhibition (IC50). In data set [1] (setting [9]), `COc1ccc2cc(C3OC4OC5(C)CCC6C(C)CCC(C3C)C46OO5)c(OC)cc2c1` (stereo not drawn) [Monomer 15, 10α-(2',7'-dimethoxynaphth-3'-yl)deoxoartemisinin] gave a 50% inhibitory concentration (IC50) of 9 nM. Take `CC1CCC2C(C)C(c3cccn3C)OC3OC4(C)CCC1C32OO4` (stereo not drawn) [Monomer 16a, 10α-(N-methylpyrrol-2'-yl)deoxoartemisinin]: in data set [1] (P. falciparum NF54), the “in vitro antimalarial potency relative to artemisinin” value is reported as “more potent than artemisinin”. This compound also came in with an IC50 in data set [1] (setting [9]) of 4.6 nM. Further, the values for the 50% effective dose (ED50) in data set [2] (po; read-out: ED50 oral) and in data set [2] (setting [10]) were 4.5 mg/kg and 0.7 mg/kg, respectively. Besides, the ED90 in data set [2] (po; read-out: ED90 oral) was determined as 8.5 mg/kg; in data set [2] (setting [11]) it was 1.2 mg/kg. Also, the stability result in data set [7] is reported as “Hydrolytically stable”. Regarding `C[C@H]1[C@H](c2cccn2Cc2ccccc2)O[C@@H]2O[C@@]3(C)CC[C@H]4[C@H](C)CC[C@@H]1[C@@]24OO3` [Monomer 16b], the concentration for half-maximal inhibition (IC50) in data set [1] (setting [9]) is 16 nM.

In the case of `CCOC(=O)Cn1cccc1[C@@H]1O[C@@H]2O[C@@]3(C)CC[C@H]4[C@H](C)CC[C@@H]([C@H]1C)[C@@]24OO3` [Monomer 16d, 10α-(1'-(Ethoxycarbonylmethyl)pyrrol-2'-yl)-10-deoxoartemisinin], the concentration for half-maximal inhibition (IC50) in data set [1] (setting [9]) was determined as 9.1 nM. For the compound `CC1CCC2C(C)C(c3cccn3CC(=O)O)OC3OC4(C)CCC1C32OO4` (stereo not drawn) [Monomer 16e], in data set [6], the concentration in solution (solubility) came to 10 mM (≈ 3910 µg/mL). For `CC1CCC2C(C)C(c3ccco3)OC3OC4(C)CCC1C32OO4` (stereo not drawn) [Monomer 17a, 10α-(2'-Furyl)-10-deoxoartemisinin], the “in vitro antimalarial potency relative to artemisinin” value in data set [1] (P. falciparum NF54) was “more potent than artemisinin”. The compound also gave an IC50 in data set [1] (setting [9]) of 1.4 nM. Further, the 50% effective dose (ED50) in data set [2] (po; read-out: ED50 oral) was 9.5 mg/kg; in data set [2] (setting [10]), 1.2 mg/kg. Moreover, the ED90 was determined as 24 mg/kg in data set [2] (po; read-out: ED90 oral) and 2 mg/kg in data set [2] (setting [11]). The stability result in data set [7] is reported as “Hydrolytically stable”. Moreover, the “in vivo acute toxicity testing” value in data set [8] is recorded as “relative safety”. Compound `Cc1ccc([C@@H]2O[C@@H]3O[C@@]4(C)CC[C@H]5[C@H](C)CC[C@@H]([C@H]2C)[C@@]35OO4)o1` [Monomer 17b] gave a half-inhibitory concentration (IC50) in data set [1] (setting [9]) of 5.2 nM. Also, the results for the 50% effective dose (ED50) in data set [2] (po; read-out: ED50 oral) and in data set [2] (setting [10]) were 15.5 mg/kg and 0.9 mg/kg, respectively. In addition, the ED90 in data set [2] (po; read-out: ED90 oral) was determined as 43 mg/kg; in data set [2] (setting [11]), 2 mg/kg. Further, the stability entry in data set [7] is given as “Hydrolytically stable”. In data set [8], the “in vivo acute toxicity testing” value was “relative safety”. For `CCc1ccc([C@@H]2O[C@@H]3O[C@@]4(C)CC[C@H]5[C@H](C)CC[C@@H]([C@H]2C)[C@@]35OO4)o1` [Monomer 17c], the IC50 in data set [1] (setting [9]) was 8.6 nM. On the same count and under the same terms, the value for `C[C@H]1[C@H](c2ccc(C(C)(C)C)o2)O[C@@H]2O[C@@]3(C)CC[C@H]4[C@H](C)CC[C@@H]1[C@@]24OO3` [Monomer 17d] was 10 nM. Regarding `C[C@H]1[C@H](c2cccs2)O[C@@H]2O[C@@]3(C)CC[C@H]4[C@H](C)CC[C@@H]1[C@@]24OO3` [Monomer 18], half-maximal inhibition in data set [1] (setting [9]) (IC50) required 5.1 nM. In the case of `CC1CCC2C(C)C(c3cn(C)c4ccccc34)OC3OC4(C)CCC1C32OO4` (stereo not drawn) [Monomer 19], in data set [1] (setting [9]), the IC50 is 4 nM. On to `CC1CCC2C(C)C(C(=O)O)OC3OC4(C)CCC1C32OO4` (stereo not drawn) [Monomer 33], for which the concentration in solution in data set [6] (solubility) came to 30 mM (≈ 9370 µg/mL).

With `CC1=CO[C@@H]2O[C@@]3(C)CC[C@H]4[C@H](C)CC[C@@H]1[C@@]24OO3` [olefinic compound III], the “activity against P. berghei-infected mice” value in data set [5] was “inactive”.
